Data: patent publication US6083920A, “Compositions for modulating intracellular inositol trisphosphate concentration” (priority 1996, dated 2000)
“Also recorded” adds a separate entry of the source.

What was measured:
hippocampal neurons = test: Histological analysis of brain 7 days after ICV infusion (cresyl violet); type: in vivo, male F344 rats; conditions: for HISTOLOGICAL CHANGES: rat
Procedure: Before administering various compounds, the animals were anesthetized with sodium pentobarbital (50 mg/kg, i.p.) and positioned in a sterotaxic instrument. A 26 gauge cannula was inserted into the cerebral ventricle at the following co-ordinates: 1.0 mm posterior to bregma, 1.5 mm lateral to the midline, and 4.0 mm below the dorsal surface of the neocortex. Cannulas were capped and fixed in place with dental cement. One week after cannulation, 10 μl of each of the treatment drugs was infused, ICV (i.e. into the ventricals of the brain), via a micropump at a rate of 10 μl/min. For this procedure, the animals were lightly restrained and unanesthetized. Following administration of the compound, the infusion cannula remained in position for one minute, after which the permanent in situ cannula was capped.
Seven days after the compounds were administered, animals were sacrificed by transcardial perfusion with neutralized, buffered 10% formalin-saline. Their brains were removed, post-fixed overnight in 10% formalin-saline, and sectioned along the coronal plane (into 50 μm thick sections) on a freezing microtome. The sections were stained with cresyl violet to determine the extent of cellular destruction. […]
Given that high concentrations of metabotropic receptors are located in the hippocampus, and that the hippocampus is particularly vulnerable to the effects of a variety of insults including ischemia and hypoxia, this region was examined for evidence of neuronal degeneration due to glutamate excitotoxicity.

[1] = tested on: calcium ion signalling in cortical neurons; test: Metabotropic receptor function: calcium ion signalling (fura 2) in intact cortical neurons; type: cell-based, chick; conditions: neurons loaded to 150±20 pmoles per mg protein; 10 μM glutamate agonist 30 minutes
Procedure: Metabotropic receptor function was examined in intact neurons by assaying lysosphingolipid modulation of calcium ion signalling. Approximately 1×10^6 cortical neurons were cultured on rectangular L-polylysine-coated coverslips and loaded with lysocerebroside or lysosphingomyelin to a level of 150±20 pmoles per mg protein. The neurons were returned to complete Ham's high glucose medium/DMEM (1:1, vol:vol) and infiltrated with 5 μM fura 2/AM (Molecular Probes, Eugene, Oreg.). Fura 2 is a calcium chelator whose fluorescence absorbance shifts to shorter wavelength upon calcium ion binding is measurable in intact cells. A change in intraneuronal calcium ion concentration was monitored as a change in the fluorescence spectrum.
The neurons were exposed to 10 μM glutamate agonist (for example, ibotenate) for 30 minutes at 37° C. The coverslips were then transferred to quartz cuvettes in medium containing 250 μM sulfinpyrazone to prevent fura 2/AM diffusion. Fluorescence ratios were recorded in a Perkin-Elmer LS-5 Fluorescence Spectrometer thermostatted at 37° C. at excitation wavelengths of 340 and 380 nm, a nd emission measurement at 500 nm. Calcium ion signalling in agonist-stimulated neurons was 3.0±0.2 arbitrary units for ibotenate-exposed neurons.

| SMILES | HISTOLOGICAL CHANGES (hippocampal neurons; Quisqualate 100 nmoles ICV) | HISTOLOGICAL CHANGES (hippocampal neurons; Quisqualate 150 nmoles ICV) | HISTOLOGICAL CHANGES (hippocampal neurons; Quisqualate 225 nmoles ICV, seven days after application) | HISTOLOGICAL CHANGES (hippocampal neurons; Quisqualate 225 nmoles ICV, seven days after application, listed as quisqualate) | HISTOLOGICAL CHANGES (hippocampal neurons; Quisqualate 250 nmoles ICV, seven days after application, listed as quisqualate) | HISTOLOGICAL CHANGES (hippocampal neurons; Quisqualate 500 μmoles ICV) | agonist-elicited calcium signalling in lysosphingolipid-loaded neurons [1] | neuronal loss (CA1 pyramidal neurons, hippocampus) caused by quisqualate (hippocampal neurons; pretreatment with psychosine 125 nmoles, quisqualate 225 nmoles ICV, 7 days) |
| --- | --- | --- | --- | --- | --- | --- | --- | --- |
| N[C@@H](Cn1oc(=O)[nH]c1=O)C(=O)O [Quisqualate, quisqualate] | none observed | none observed | loss of CA1 | severe loss of neurons in the hippocampus; also recorded: considerable loss of CA1 pyramidal neurons in the hippocampus | severe loss of neurons in the hippocampus | loss of neurons | – | – |
| CCCCCCCCCCCCC/C=C/[C@@H](O)[C@@H](N)COP(=O)([O-])OCC[N+](C)(C)C [lysosphingomyelin, sphingosyl phosphoryicholine] | – | – | – | – | – | – | no calcium signalling measurably over controls | – |
| CCCCCCCCCCCCC/C=C/[C@@H](O)[C@@H](N)CO[C@@H]1O[C@H](CO)[C@H](O)[C@H](O)[C@H]1O [psychosine, lysocerebroside] | – | – | – | – | – | – | no calcium signalling measurably over controls | prevents the neuronal loss caused by quisqualate |
